pIC50: −log10 of the molar value.
Target: Tyrosine-protein phosphatase non-receptor type 7 (Homo sapiens) (UniProt P35236)
Assay: HePTP phosphatase inhibition by analogues, SAR follow-up, selectivity assay for VHR1 inhibitor project, biochemical, DiFMUP fluorescence (AID 2082)
Settings: recombinant HePTP

Chain of Tyrosine-protein phosphatase non-receptor type 7 (Homo sapiens) (P35236 whole entry, looked up): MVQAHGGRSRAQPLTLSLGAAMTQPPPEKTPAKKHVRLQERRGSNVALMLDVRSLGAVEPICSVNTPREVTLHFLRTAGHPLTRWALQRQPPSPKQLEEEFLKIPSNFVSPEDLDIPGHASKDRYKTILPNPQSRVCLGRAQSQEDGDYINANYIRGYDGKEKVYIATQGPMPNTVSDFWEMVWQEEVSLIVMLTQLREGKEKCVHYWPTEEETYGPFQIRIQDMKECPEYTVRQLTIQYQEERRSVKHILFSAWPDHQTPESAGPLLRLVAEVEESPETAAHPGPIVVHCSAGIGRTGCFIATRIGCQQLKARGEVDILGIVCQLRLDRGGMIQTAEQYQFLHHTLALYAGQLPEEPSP

Compound	pIC50
O=C1/C(=C/c2cn(-c3ccccc3)nc2-c2ccc(OCc3ccccc3F)cc2)SC(=S)N1CCS(=O)(=O)O	6.06
O=C1/C(=C/c2cn(-c3ccccc3)nc2-c2ccc(OCc3ccc(Cl)cc3)cc2)SC(=S)N1CCS(=O)(=O)O	6.21
O=C1/C(=C/c2cn(-c3ccccc3)nc2-c2ccc(OCc3ccccc3Cl)cc2)SC(=S)N1CCS(=O)(=O)O	5.92
O=C1/C(=C/c2cn(-c3ccccc3)nc2-c2ccc(OCc3ccccc3)cc2)SC(=S)N1CCS(=O)(=O)O	5.82
O=C1/C(=C/c2cn(-c3ccccc3)nc2-c2ccc(S(=O)(=O)N3CCCCC3)cc2)SC(=S)N1CCS(=O)(=O)O	5.62

— PubChem BioAssay AID2082 (Sanford-Burnham Center for Chemical Genomics, 2009)
